Measured values from PMC6274180, “Investigating Glycol-Split-Heparin-Derived Inhibitors of Heparanase: A Study of Synthetic Trisaccharides” (Molecules, 2016).

Biological target: T1, heparanase (Homo sapiens, UniProt Q9Y251)
T1 construct: gene HPSE
T1 sequence (Q9Y251 36-109): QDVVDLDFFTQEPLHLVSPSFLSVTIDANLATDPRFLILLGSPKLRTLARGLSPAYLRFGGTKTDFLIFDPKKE
T1 sequence (Q9Y251 158-543): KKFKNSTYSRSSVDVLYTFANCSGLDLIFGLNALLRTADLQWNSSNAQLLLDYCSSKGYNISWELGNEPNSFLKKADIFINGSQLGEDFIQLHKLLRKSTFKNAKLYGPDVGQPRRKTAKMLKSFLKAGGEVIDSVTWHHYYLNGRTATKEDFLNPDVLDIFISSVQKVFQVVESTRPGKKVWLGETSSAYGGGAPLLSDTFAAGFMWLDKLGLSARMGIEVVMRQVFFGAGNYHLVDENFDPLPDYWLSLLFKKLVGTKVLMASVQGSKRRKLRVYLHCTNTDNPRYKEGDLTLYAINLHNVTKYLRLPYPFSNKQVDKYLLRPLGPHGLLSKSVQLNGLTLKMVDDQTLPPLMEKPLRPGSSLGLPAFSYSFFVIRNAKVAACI
Experiment: in vitro colorimetric (WST-1) heparanase inhibition assay with fondaparinux as substrate
Format: biochemical

IC50 [µM]	Compound
39.9	CO[C@H]1[C@H](O)[C@@H](NS(=O)(=O)O)[C@@H](O[C@H]2[C@H](O)[C@@H](O)[C@H](O[C@H]3[C@H](O)[C@@H](NS(=O)(=O)O)[C@@H]4OC[C@H]3O4)O[C@@H]2C(=O)O)O[C@@H]1COS(=O)(=O)O [compound 1]
2.65	CO[C@H]1[C@H](O)[C@@H](NS(=O)(=O)O)[C@@H](O[C@@H](CO)[C@H](O[C@H](CO)O[C@H]2[C@H](O)[C@@H](NS(=O)(=O)O)[C@@H]3OC[C@H]2O3)C(=O)O)O[C@@H]1COS(=O)(=O)O [compound 2, sodium(2S,3S)-4-hydroxy-2-((R)-2-hydroxy-1-(((1R,2S,3R,4R,5R)-3-hydroxy-4-(sulfonatoamino)-6,8-dioxabicyclo[3.2.1]octan-2-yl)oxy)ethoxy)-3-(((2R,3R,4R,5S,6R)-4-hydroxy-5-methoxy-3-(sulfonatoamino)-6-((sulfonatooxy)methyl)tetrahydro-2H-pyran-2-yl)oxy)butanoate]
